Measurements as given in patent US9522198B2, “Methods and compositions related to targeting tumors and wounds” (Sanford-Burnham Medical Research Institute, priority 2006, dated 2016).
Ends that are not written are not given here.

Test system: B16F1 tumors
Assay: Homing to B16F1 tumors in wild type, fibrinogen knockout and plasma fibronectin-deficient mice
Assay type: in vivo, mouse
Excerpt: Knockout mice were employed to study the role of fibrin(ogen) and fibronectin in the homing of the CLT peptides to tumors. Fibrinogen knockout mice are viable (Palumbo, J. S., Kombrinck, K. W., Drew, A. F., Grimes, T. S., Kiser, J. H. Jay L. Degen, J. L. & Bugge, T. H. (2000), Blood 96, 3302-3309) and were used as tumor recipients. Complete absence of fibronectin is lethal, but mice that lack plasma fibronectin can be generated by postnatally deleting the fibronectin gene in the liver (Sakai, T., Johnson, K. J., Murozono, M., Sakai, K., Magnuson, M. A., Wieloch, T., Cronberg, T., Isshiki, A., Erickson, H. P., & Fassler R. (2001) Nat. Med. 7, 324-30). The CLT peptides homed to B16F1 tumors grown in wild type C57BL/6 mice (n=10) producing a fibrillar meshwork (CLT1; FIG. 3D). In contrast, only faint, evenly distributed fluorescence was present in tumors (n=4) grown in the fibrinogen knockout mice (which lack the ability to produce fibrin) (FIG. 3E). […] Unlike in the fibrinogen knockout mice, there was no residual peptide binding to the tumors in the plasma fibronectin-deficient mice (FIG. 3H).
B16F1 mouse melanoma, Lewis lung carcinoma, C8161 human melanoma, MDA-MB-435 human breast cancer, and PPC-1 human prostate cancer cells (American Type Culture Collection) were maintained in RPMI or DMEM supplemented with 10% FCS. Human tumor cells (1×10^6) were injected into the mammary fat pad or the flank of nude BALB/c nu/nu mice to induce tumors. MMTV PyMT mice were provided by Dr. Robert Oshima (Burnham Institute for Medical Research, La Jolla, Calif.). […]
The mice were perfused through the heart 3 hours after the peptide injection and tissues removed for examination. […] Tissue fluorescence was quantified using Image-Pro Plus software. At least two images from representative microscopic fields were analyzed from each tissue sample and data from individual mice that received the same treatment (n=2-8) were pooled.

In the case of “CGLIIQKNEC (also: cyclic, ring type not given here, fluorescein conjugate, site not given here) [CLT1, cyclic decapeptide from phage library screened on plasma clots; tested as fluorescein conjugate]”, the “homing to B16F1 tumors” value (plasma fibronectin-deficient mice) is reported as “negative”, the “homing to B16F1 tumors” value (wild type C57BL/6 mice) is reported as “produce a fluorescent meshwork” and the “homing to B16F1 tumors” value (wild type littermates of plasma fibronectin-deficient mice) is reported as “homes”.
